Results published in PMC4143145 (European journal of medicinal chemistry, 2014).

How the values were obtained:
cdc25C = assay: Western blot in HeLa cells; assay type: cell-based, human; conditions: 25 µM; for cdc25C forms: 24 h; for cdc25c expression: 48 h
γ-H2A.X = assay: Western blot in HeLa cells; assay type: cell-based, human; conditions: 25 µM, 24 h
cyclin B = assay: Western blot in HeLa cells; assay type: cell-based, human; conditions: 25 µM
aurora kinase A = assay: Western blot in HeLa cells; assay type: cell-based, human; conditions: 25 µM, 24 h
[1] = tested on: PBL not stimulated with PHA; assay: Cytotoxicity for resting peripheral blood lymphocytes; assay type: cell-based; conditions: Homo sapiens, Lymphocyte, read-out: IC50 PBLresting
Mcl-1 = assay: Western blot in HeLa cells; assay type: cell-based, human; conditions: 25 µM, 24 h
HeLa cells [2] = assay: Immunofluorescence of the microtubule network; assay type: cell-based, human; conditions: 25 µM, 24 h
[3] = tested on: Burkitt lymphoma CA46 cells; assay: Growth inhibition of Burkitt lymphoma CA46 cells; assay type: cell-based; conditions: Homo sapiens, CA46, read-out: IC50 in CA46 cells
tubulin [4] = conditions: highest concentration examined 100 µM; cited from earlier work
Bcl-2 = assay: Western blot in HeLa cells; assay type: cell-based, human; conditions: 25 µM, 24 h
HeLa cells [5] = assay: Annexin-V/PI flow cytometry; assay type: cell-based, human; conditions: 24 or 48 h
tubulin [6] = conditions: cited from earlier work

Compound: COc1ccc2c(c1OC)C(=O)O[C@@H]2[C@H]1c2c(c(-c3ccc(C)cc3)c3c(c2OC)OCO3)CCN1C [Compound 5, 9′-(4-Methylphenyl)-noscapine]
- cdc25C forms (cdc25C): slower migrating forms
- cdc25c expression (cdc25C): strongly decreased
- expression of γ-H2A.X (γ-H2A.X): marked increase
- cyclin B expression (cyclin B; 24 h): increased expression
- cyclin B expression (cyclin B; 48 h): disappearance
- aurora kinase levels (aurora kinase A): increased
- IC50 [1]: > 200 µM

Compound: COc1ccc2c(c1OC)C(=O)O[C@@H]2[C@H]1c2c(c(-c3ccccc3)c3c(c2OC)OCO3)CCN1C [Compound 4, 9′-Phenylnoscapine]
- Mcl-1 band (Mcl-1): strongly reduced
- cdc25C forms (cdc25C): slower migrating forms
- cdc25c expression (cdc25C): strongly decreased
- expression of γ-H2A.X (γ-H2A.X): marked increase
- cyclin B expression (cyclin B; 24 h): increased expression
- cyclin B expression (cyclin B; 48 h): disappearance
- aurora kinase levels (aurora kinase A): increased
- IC50 [1]: > 200 µM

Compound: COc1cccc(-c2c3c(c(OC)c4c2OCO4)[C@H]([C@H]2OC(=O)c4c2ccc(OC)c4OC)N(C)CC3)c1 [Compound 7, 9′-(3-Methoxyphenyl)-noscapine]
- cells with induced spherical morphology (microtubule rearrangement) (HeLa cells [2]): 70–80%
- IC50 [1]: > 200 µM

Compound: COc1ccc(/C=C\c2cc(OC)c(OC)c(OC)c2)cc1O [CA-4, combretastatin A-4]
- IC50 [3]: 0.02 ± 0.007 µM

Compound: COc1ccc2c(c1OC)C(=O)O[C@@H]2[C@H]1c2c(c(Br)c3c(c2OC)OCO3)CCN1C [Compound 2, 9′-bromonoscapine, reference compound]
- inhibition of colchicine binding (fluorescence) (tubulin [4]): inhibition of colchicine binding
- cells with induced spherical morphology (microtubule rearrangement) (HeLa cells [2]): 70–80%
- Mcl-1 band (Mcl-1): strongly reduced
- cdc25c expression (cdc25C): strongly decreased
- Bcl-2 expression (Bcl-2): reduced
- IC50 [1]: > 200 µM
- annexin-V positive cells (apoptosis) (HeLa cells [5]): slightly more active than the other three compounds

Compound: COc1ccc2c(c1OC)C(=O)O[C@@H]2[C@H]1c2c(c(C)c3c(c2OC)OCO3)CCN1C [Compound 3, 9′-Methylnoscapine]
- cells with induced spherical morphology (microtubule rearrangement) (HeLa cells [2]): 70–80%
- Mcl-1 band (Mcl-1): strongly reduced
- expression of γ-H2A.X (γ-H2A.X): marked increase
- Bcl-2 expression (Bcl-2): reduced
- cyclin B expression (cyclin B; 24 h): increased expression
- cyclin B expression (cyclin B; 48 h): disappearance
- aurora kinase levels (aurora kinase A): increased
- IC50 [1]: > 200 µM

Compound: COc1ccc2c(c1OC)C(=O)O[C@@H]2[C@H]1c2c(c(-c3ccc4ccccc4c3)c3c(c2OC)OCO3)CCN1C [Compound 9, 9′-(2-Naphthyl)-noscapine]
- IC50 [1]: > 200 µM

Compound: COc1ccccc1-c1c2c(c(OC)c3c1OCO3)[C@H]([C@H]1OC(=O)c3c1ccc(OC)c3OC)N(C)CC2 [Compound 6, 9′-(2-Methoxyphenyl)-noscapine]
- IC50 [1]: > 200 µM

Compound: COc1ccc2c(c1OC)C(=O)O[C@@H]2[C@H]1c2c(cc3c(c2OC)OCO3)CCN1C [Compound 1, (S)-6,7-dimethoxy-3-((R)-4′-methoxy-6′-methyl-5′,6′,7′,8′-tetrahydro[1,3]dioxolo-[4,5]isoquinolin-5′-yl)isobenzofuran-1(3H)-one]
- inhibition of colchicine binding (fluorescence) (tubulin [4]): no activity
- inhibition of [3H]colchicine binding to tubulin (tubulin [6]): without success

Compound: COc1ccc(-c2c3c(c(OC)c4c2OCO4)[C@H]([C@H]2OC(=O)c4c2ccc(OC)c4OC)N(C)CC3)cc1 [Compound 8, 9′-(4-Methoxyphenyl)-noscapine]
- IC50 [1]: > 200 µM
